This is an account of results in patent EP0141119A2, “Sulfenamide derivatives, process for their preparation, and medicaments containing these compounds” (LUDWIG HEUMANN & CO GMBH, priority 1983, dated 1985).

The target in this assay is T1, Histamin-H2-Rezeptoren (Cavia porcellus, UniProt P47747).
T1 construct: in vitro am isolierten rechten Vorhof des Meerschweinchens; from tissue; host or cells: isolated right atrium of the guinea pig
The assay is described as follows: Determination of pA2 values in vitro on the isolated right atrium of the guinea pig (H2-antagonistic activity). The settings on record: read-out: pA2-Werte (converted). It counts as cell-based, Meerschweinchen.

Molecules are shown by their SMILES.

T1 sequence (P47747 whole entry): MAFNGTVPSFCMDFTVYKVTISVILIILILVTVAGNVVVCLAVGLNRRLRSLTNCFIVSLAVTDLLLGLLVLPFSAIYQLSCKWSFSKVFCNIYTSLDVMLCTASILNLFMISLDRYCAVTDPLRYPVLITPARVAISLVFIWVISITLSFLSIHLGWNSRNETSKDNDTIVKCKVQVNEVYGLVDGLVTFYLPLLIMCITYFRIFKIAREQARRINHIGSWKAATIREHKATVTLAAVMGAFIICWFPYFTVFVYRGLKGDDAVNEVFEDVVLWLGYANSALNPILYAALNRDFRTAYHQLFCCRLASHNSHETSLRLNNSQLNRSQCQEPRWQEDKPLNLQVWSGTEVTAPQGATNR
Description: Eine anerkannte Methode zur Bestimmung H2-antagonistischer Wirksamkeit ist die Ermittlung der pA2-Werte in vitro am isolierten rechten Vorhof des Meerschweinchens.

Take `Cc1ccc(SNc2nc(NCCCOc3cccc(CN4CCCCC4)c3)n(C)n2)cc1` [Beispiel 1, 1-Methyl-5-[3-[3-(1-piperidinylmethyl)phenoxy]propylamino]-3-(4-methyl-benzolsulfenamido)-1H-1,2,4-triazol]: the Kb was 0.00158 µM.

`CNC(=C[N+](=O)[O-])NCCSCc1ccc(CN(C)C)o1` [Ranitidin]: the Kb is 0.155 µM.
